Test results from the kinase profiling compilation of Christmann-Franck et al. (2016).

Key:
PIK3C2A (human) = PIK3C2A (human) (UniProt O00443); assay: SelectScreen, TR FRET
PI4KB (human) = PI4KB (human) (UniProt Q9UBF8); assay: SelectScreen, TR FRET
PIK3C2B (human) = PIK3C2B (human) (UniProt O00750); assay: SelectScreen, TR FRET
LYN (human) = LYN (human) (UniProt P07948); assay: KINOMEscan competition binding; conditions: compound 10.0 µM
ULK3 (human) = ULK3 (human) (UniProt Q6PHR2); assay: KINOMEscan competition binding; conditions: compound 10.0 µM
NTRK1 (human) = NTRK1 (human) (UniProt P04629); assay: KINOMEscan competition binding; conditions: compound 10.0 µM
Chain of NTRK1 (human) (P04629 whole entry, looked up): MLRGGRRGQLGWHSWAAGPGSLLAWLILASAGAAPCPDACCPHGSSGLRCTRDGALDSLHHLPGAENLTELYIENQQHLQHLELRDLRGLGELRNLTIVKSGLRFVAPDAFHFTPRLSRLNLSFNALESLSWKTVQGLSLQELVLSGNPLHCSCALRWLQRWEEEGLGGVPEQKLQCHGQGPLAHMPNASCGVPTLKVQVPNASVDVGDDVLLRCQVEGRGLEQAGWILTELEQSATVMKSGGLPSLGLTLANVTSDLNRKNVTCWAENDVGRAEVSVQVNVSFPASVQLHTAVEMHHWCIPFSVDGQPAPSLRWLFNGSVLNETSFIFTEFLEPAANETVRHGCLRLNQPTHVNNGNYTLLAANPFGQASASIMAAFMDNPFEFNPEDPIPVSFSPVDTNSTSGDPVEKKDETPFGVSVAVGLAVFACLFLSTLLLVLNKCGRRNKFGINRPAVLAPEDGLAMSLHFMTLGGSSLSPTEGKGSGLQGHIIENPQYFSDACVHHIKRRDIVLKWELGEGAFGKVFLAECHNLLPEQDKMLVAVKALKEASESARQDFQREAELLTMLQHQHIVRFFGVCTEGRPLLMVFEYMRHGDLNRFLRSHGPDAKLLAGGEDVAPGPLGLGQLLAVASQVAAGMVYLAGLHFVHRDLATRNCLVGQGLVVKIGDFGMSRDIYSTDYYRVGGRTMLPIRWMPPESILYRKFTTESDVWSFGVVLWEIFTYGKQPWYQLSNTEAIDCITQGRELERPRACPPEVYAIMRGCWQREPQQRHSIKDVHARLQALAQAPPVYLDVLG

DCLK1 (human) = DCLK1 (human) (UniProt O15075); assay: KINOMEscan competition binding; conditions: compound 10.0 µM
PRKCQ (human) = PRKCQ (human) (UniProt Q04759); assay: KINOMEscan competition binding; conditions: compound 10.0 µM
TTK (human) = TTK (human) (UniProt P33981); assay: KINOMEscan competition binding; conditions: compound 10.0 µM
EPHA6 (human) = EPHA6 (human) (UniProt Q9UF33); assay: KINOMEscan competition binding; conditions: compound 10.0 µM
SLK (human) = SLK (human) (UniProt Q9H2G2); assay: KINOMEscan competition binding; conditions: compound 10.0 µM
PTK2B (human) = PTK2B (human) (UniProt Q14289); assay: KINOMEscan competition binding; conditions: compound 10.0 µM
[1] = tested on: KIT (human), P10721 [V559D/T670I]; assay: KINOMEscan competition binding; conditions: compound 10.0 µM
Chain of KIT (human), P10721 [V559D/T670I] (P10721 whole entry V559D/T670I, looked up): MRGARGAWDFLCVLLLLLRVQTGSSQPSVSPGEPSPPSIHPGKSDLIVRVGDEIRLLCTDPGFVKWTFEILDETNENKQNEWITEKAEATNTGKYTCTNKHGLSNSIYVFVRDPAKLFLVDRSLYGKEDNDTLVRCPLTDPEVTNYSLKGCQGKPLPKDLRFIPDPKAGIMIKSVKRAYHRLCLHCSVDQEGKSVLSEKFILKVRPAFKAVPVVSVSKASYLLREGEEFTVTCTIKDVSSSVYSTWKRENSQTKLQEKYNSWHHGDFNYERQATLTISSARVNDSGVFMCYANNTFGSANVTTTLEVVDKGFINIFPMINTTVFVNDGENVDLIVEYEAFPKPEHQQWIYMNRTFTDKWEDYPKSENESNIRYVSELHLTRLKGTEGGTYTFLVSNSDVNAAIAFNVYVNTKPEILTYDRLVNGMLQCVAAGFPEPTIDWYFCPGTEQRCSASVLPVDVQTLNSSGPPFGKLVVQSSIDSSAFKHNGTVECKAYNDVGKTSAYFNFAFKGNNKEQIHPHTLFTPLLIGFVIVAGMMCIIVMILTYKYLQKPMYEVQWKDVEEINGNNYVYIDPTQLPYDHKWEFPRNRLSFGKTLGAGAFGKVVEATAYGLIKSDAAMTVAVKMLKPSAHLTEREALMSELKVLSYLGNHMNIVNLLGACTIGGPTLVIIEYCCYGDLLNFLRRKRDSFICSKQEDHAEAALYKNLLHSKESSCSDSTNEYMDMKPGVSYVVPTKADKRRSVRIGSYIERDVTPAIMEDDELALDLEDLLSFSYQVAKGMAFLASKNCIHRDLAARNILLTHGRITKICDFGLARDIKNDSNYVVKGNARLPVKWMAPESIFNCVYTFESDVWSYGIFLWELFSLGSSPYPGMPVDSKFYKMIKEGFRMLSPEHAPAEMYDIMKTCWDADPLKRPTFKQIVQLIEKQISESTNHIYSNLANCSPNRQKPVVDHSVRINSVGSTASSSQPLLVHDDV

AKT2 (human) = AKT2 (human) (UniProt P31751); assay: KINOMEscan competition binding; conditions: compound 10.0 µM
Chain of AKT2 (human) (P31751 whole entry, looked up): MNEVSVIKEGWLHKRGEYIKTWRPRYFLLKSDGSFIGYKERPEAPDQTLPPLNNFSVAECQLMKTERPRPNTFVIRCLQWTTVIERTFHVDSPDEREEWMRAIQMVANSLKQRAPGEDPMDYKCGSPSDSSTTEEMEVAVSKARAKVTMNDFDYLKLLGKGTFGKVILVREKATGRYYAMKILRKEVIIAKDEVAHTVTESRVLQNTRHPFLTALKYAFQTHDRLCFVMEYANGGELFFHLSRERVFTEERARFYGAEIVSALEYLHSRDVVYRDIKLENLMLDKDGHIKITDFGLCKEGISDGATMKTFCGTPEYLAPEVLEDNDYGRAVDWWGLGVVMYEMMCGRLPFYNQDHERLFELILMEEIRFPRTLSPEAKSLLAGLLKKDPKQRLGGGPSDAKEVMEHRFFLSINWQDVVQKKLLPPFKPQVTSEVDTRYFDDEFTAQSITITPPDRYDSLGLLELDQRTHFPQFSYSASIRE

MAP3K10 (human) = MAP3K10 (human) (UniProt Q02779); assay: KINOMEscan competition binding; conditions: compound 10.0 µM
PIP4K2B (human) = PIP4K2B (human) (UniProt P78356); assay: KINOMEscan competition binding; conditions: compound 10.0 µM
NEK1 (human) = NEK1 (human) (UniProt Q96PY6); assay: KINOMEscan competition binding; conditions: compound 10.0 µM
CLK4 (human) = CLK4 (human) (UniProt Q9HAZ1); assay: KINOMEscan competition binding; conditions: compound 10.0 µM
RPS6KA2 KD1 (human) = RPS6KA2 KD1 (human) (UniProt Q15349); assay: KINOMEscan competition binding; conditions: compound 10.0 µM
RPS6KA1 KD1 (human) = RPS6KA1 KD1 (human) (UniProt Q15418); assay: KINOMEscan competition binding; conditions: compound 10.0 µM
Chain of RPS6KA1 KD1 (human) (Q15418 whole entry, looked up): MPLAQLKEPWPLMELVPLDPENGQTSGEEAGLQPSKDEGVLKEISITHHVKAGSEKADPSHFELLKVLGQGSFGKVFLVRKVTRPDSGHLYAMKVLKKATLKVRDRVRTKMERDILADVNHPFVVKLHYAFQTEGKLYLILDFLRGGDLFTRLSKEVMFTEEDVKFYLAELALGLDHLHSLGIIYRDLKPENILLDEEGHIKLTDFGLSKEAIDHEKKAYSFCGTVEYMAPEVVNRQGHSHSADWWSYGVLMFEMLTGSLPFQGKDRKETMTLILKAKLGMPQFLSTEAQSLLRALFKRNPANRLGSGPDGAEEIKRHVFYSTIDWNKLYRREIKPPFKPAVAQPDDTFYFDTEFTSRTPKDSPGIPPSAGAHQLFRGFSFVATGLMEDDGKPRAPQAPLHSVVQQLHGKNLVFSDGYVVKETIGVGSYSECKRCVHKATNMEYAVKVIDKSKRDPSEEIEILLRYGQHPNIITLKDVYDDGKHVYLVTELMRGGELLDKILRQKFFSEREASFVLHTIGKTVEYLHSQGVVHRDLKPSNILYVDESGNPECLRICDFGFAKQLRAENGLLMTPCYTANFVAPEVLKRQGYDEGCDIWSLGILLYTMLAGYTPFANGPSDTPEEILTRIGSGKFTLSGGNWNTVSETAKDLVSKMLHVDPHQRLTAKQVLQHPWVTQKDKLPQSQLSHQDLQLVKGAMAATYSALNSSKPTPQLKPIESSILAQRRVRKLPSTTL

EIF2AK2 (human) = EIF2AK2 (human) (UniProt P19525); assay: KINOMEscan competition binding; conditions: compound 10.0 µM
MAP2K2 (human) = MAP2K2 (human) (UniProt P36507); assay: KINOMEscan competition binding; conditions: compound 10.0 µM
Chain of MAP2K2 (human) (P36507 whole entry, looked up): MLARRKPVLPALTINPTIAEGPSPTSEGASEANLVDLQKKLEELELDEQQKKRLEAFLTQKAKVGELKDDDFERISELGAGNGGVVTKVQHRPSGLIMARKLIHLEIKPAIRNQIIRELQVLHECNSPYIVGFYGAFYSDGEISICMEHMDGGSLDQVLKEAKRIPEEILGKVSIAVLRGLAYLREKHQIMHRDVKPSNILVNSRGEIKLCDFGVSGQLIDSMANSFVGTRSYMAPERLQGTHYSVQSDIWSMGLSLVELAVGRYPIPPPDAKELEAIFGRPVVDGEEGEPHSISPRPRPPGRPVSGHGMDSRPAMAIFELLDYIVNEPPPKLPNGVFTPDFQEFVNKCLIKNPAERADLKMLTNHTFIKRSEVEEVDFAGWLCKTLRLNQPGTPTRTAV

AAK1 (human) = AAK1 (human) (UniProt Q2M2I8); assay: KINOMEscan competition binding; conditions: compound 10.0 µM
[2] = tested on: EGFR (human), P00533 [752-759 del]; assay: KINOMEscan competition binding; conditions: compound 10.0 µM
DDR1 (human) = DDR1 (human) (UniProt Q08345); assay: KINOMEscan competition binding; conditions: compound 10.0 µM
PAK1 (human) = PAK1 (human) (UniProt Q13153); assay: KINOMEscan competition binding; conditions: compound 10.0 µM
STK17B (human) = STK17B (human) (UniProt O94768); assay: KINOMEscan competition binding; conditions: compound 10.0 µM
Chain of STK17B (human) (O94768 whole entry, looked up): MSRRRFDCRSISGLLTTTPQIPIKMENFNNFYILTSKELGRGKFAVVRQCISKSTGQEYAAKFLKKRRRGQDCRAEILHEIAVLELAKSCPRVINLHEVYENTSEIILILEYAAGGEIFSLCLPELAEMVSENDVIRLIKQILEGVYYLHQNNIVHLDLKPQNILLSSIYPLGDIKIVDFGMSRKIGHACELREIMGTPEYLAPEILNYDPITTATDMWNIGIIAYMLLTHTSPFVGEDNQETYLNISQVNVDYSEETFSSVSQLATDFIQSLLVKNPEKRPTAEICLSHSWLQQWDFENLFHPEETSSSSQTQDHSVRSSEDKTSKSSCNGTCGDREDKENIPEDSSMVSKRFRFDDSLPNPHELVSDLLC

CSNK1A1L (human) = CSNK1A1L (human) (UniProt Q8N752); assay: KINOMEscan competition binding; conditions: compound 10.0 µM
STK36 (human) = STK36 (human) (UniProt Q9NRP7); assay: KINOMEscan competition binding; conditions: compound 10.0 µM
TAOK1 (human) = TAOK1 (human) (UniProt Q7L7X3); assay: KINOMEscan competition binding; conditions: compound 10.0 µM
CAMKK2 (human) = CAMKK2 (human) (UniProt Q96RR4); assay: KINOMEscan competition binding; conditions: compound 10.0 µM
TRPM6 (human) = TRPM6 (human) (UniProt Q9BX84); assay: KINOMEscan competition binding; conditions: compound 10.0 µM
GAK (human) = GAK (human) (UniProt O14976); assay: KINOMEscan competition binding; conditions: compound 10.0 µM
MST4 (human) = MST4 (human) (UniProt Q9P289); assay: KINOMEscan competition binding; conditions: compound 10.0 µM
MAPK7 (human) = MAPK7 (human) (UniProt Q13164); assay: KINOMEscan competition binding; conditions: compound 10.0 µM
MAPK1 (human) = MAPK1 (human) (UniProt P28482); assay: KINOMEscan competition binding; conditions: compound 10.0 µM
Chain of MAPK1 (human) (P28482 whole entry, looked up): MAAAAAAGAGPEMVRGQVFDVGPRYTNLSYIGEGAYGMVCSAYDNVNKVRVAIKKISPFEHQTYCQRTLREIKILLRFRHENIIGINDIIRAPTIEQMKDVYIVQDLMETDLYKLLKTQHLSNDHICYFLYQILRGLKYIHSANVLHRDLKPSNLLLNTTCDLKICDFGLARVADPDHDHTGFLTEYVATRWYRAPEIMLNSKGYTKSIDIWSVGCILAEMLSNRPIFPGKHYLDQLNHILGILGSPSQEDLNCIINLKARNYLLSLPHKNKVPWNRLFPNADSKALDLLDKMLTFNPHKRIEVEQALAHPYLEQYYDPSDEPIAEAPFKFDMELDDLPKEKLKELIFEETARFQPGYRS

EGFR (human) = EGFR (human) (UniProt P00533); assay: KINOMEscan competition binding; conditions: compound 10.0 µM
TNIK (human) = TNIK (human) (UniProt Q9UKE5); assay: KINOMEscan competition binding; conditions: compound 10.0 µM
MAST1 (human) = MAST1 (human) (UniProt Q9Y2H9); assay: KINOMEscan competition binding; conditions: compound 10.0 µM
YES1 (human) = YES1 (human) (UniProt P07947); assay: KINOMEscan competition binding; conditions: compound 10.0 µM
CAMK2A (human) = CAMK2A (human) (UniProt Q9UQM7); assay: KINOMEscan competition binding; conditions: compound 10.0 µM
FLT1 (human) = FLT1 (human) (UniProt P17948); assay: KINOMEscan competition binding; conditions: compound 10.0 µM

Chain of PI4KB (human) (Q9UBF8 whole entry, looked up): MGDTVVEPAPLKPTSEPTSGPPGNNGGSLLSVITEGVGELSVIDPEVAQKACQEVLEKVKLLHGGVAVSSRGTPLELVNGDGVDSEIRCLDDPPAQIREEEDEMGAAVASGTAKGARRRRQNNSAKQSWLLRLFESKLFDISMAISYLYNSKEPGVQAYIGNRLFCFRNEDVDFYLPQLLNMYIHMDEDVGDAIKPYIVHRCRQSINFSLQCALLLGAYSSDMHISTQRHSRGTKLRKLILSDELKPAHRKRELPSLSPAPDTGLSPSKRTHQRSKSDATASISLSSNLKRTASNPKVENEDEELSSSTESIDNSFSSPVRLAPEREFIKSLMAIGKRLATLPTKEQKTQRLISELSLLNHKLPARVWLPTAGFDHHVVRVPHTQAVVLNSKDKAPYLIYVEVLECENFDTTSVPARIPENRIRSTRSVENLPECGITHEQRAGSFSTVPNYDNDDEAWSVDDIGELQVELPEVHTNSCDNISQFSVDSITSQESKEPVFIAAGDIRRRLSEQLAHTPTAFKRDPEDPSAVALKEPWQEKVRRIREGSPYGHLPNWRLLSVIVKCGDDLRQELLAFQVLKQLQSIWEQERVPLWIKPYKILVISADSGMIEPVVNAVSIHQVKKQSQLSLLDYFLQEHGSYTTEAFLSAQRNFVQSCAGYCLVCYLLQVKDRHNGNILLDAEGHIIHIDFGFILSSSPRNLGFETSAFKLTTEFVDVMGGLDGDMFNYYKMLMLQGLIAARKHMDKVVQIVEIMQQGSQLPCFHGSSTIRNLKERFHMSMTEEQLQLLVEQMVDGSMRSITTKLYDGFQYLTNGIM

Which results are given for `Cc1cc([C@@H](C)Nc2ccccc2C(=O)O)c2nc(N3CCOCC3)cc(=O)n2c1`?
IC50 (PIK3C2A (human)): > 1000 nM; IC50 (PI4KB (human)): > 10000 nM; IC50 (PIK3C2B (human)): 54.1 nM; kinase still bound, per cent of control (LYN (human)): 89%; kinase still bound, per cent of control (ULK3 (human)): 100%; kinase still bound, per cent of control (NTRK1 (human)): 69%; kinase still bound, per cent of control (DCLK1 (human)): 100%; kinase still bound, per cent of control (PRKCQ (human)): 100%; kinase still bound, per cent of control (TTK (human)): 88%; kinase still bound, per cent of control (EPHA6 (human)): 100%; kinase still bound, per cent of control (SLK (human)): 85%; kinase still bound, per cent of control (PTK2B (human)): 90%; kinase still bound, per cent of control [1]: 64%; kinase still bound, per cent of control (AKT2 (human)): 100%; kinase still bound, per cent of control (MAP3K10 (human)): 96%; kinase still bound, per cent of control (PIP4K2B (human)): 84%; kinase still bound, per cent of control (NEK1 (human)): 100%; kinase still bound, per cent of control (CLK4 (human)): 100%; kinase still bound, per cent of control (RPS6KA2 KD1 (human)): 100%; kinase still bound, per cent of control (RPS6KA1 KD1 (human)): 67%; kinase still bound, per cent of control (EIF2AK2 (human)): 100%; kinase still bound, per cent of control (MAP2K2 (human)): 98%; kinase still bound, per cent of control (AAK1 (human)): 91%; kinase still bound, per cent of control [2]: 100%; kinase still bound, per cent of control (DDR1 (human)): 81%; kinase still bound, per cent of control (PAK1 (human)): 97%; kinase still bound, per cent of control (STK17B (human)): 100%; kinase still bound, per cent of control (CSNK1A1L (human)): 94%; kinase still bound, per cent of control (STK36 (human)): 82%; kinase still bound, per cent of control (TAOK1 (human)): 79%; kinase still bound, per cent of control (CAMKK2 (human)): 72%; kinase still bound, per cent of control (TRPM6 (human)): 64%; kinase still bound, per cent of control (GAK (human)): 83%; kinase still bound, per cent of control (MST4 (human)): 100%; kinase still bound, per cent of control (MAPK7 (human)): 100%; kinase still bound, per cent of control (MAPK1 (human)): 100%; kinase still bound, per cent of control (EGFR (human)): 100%; kinase still bound, per cent of control (TNIK (human)): 97%; kinase still bound, per cent of control (MAST1 (human)): 54%; kinase still bound, per cent of control (YES1 (human)): 100%; kinase still bound, per cent of control (CAMK2A (human)): 66%; kinase still bound, per cent of control (FLT1 (human)): 96%
